The IC50 is the concentration that gives 50% inhibition. A higher IC50 goes with lower potency.

Experiment [1] concerns the target T1, Dihydrofolate reductase (Pneumocystis carinii, UniProt P16184).
T1 sequence (P16184 whole entry): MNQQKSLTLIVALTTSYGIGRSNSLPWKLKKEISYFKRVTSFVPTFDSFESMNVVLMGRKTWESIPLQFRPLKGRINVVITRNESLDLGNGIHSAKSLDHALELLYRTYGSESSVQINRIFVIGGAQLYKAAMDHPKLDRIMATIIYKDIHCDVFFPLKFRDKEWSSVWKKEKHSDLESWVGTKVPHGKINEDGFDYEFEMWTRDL
Description: Inhibitory activity against dihydrofolate reductase from pneumocystis carinii

For experiment [2], the target named is T2, Dihydrofolate reductase (Rattus norvegicus, UniProt Q920D2).
T2 sequence (Q920D2 whole entry): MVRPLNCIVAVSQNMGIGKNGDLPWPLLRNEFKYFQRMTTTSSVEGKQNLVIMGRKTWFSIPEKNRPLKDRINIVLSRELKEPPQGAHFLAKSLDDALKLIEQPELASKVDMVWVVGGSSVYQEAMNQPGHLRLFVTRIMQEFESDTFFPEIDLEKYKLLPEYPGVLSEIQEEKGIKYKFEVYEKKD
Description: Inhibitory activity against dihydrofolate reductase from rat liver

Experiment [3] concerns the target T3, Bifunctional dihydrofolate reductase-thymidylate synthase (Toxoplasma gondii, UniProt Q07422).
T3 sequence (Q07422 whole entry): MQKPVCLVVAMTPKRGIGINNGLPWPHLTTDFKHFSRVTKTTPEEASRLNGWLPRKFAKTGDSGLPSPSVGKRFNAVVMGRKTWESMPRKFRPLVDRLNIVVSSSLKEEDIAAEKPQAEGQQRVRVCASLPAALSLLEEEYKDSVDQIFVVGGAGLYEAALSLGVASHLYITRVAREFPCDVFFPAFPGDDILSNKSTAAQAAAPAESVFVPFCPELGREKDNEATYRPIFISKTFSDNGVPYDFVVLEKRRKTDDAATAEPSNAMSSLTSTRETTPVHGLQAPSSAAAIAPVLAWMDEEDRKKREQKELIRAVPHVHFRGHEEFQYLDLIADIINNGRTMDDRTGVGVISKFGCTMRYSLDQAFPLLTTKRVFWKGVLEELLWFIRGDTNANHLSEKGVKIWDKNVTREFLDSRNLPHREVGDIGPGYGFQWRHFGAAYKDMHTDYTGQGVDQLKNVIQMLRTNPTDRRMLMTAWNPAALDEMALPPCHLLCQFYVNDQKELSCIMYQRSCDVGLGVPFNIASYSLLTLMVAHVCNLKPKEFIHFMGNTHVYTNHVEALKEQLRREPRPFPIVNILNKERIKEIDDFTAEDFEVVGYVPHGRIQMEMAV
Description: Inhibitory activity against dihydrofolate reductase from Toxoplasma gondii

On to `CN(Cc1coc2nc(N)nc(N)c12)c1ccc2ccccc2c1`, for which the results for the IC50 at Dihydrofolate reductase [1] and against Dihydrofolate reductase [2] were 14.8 µM and 14.6 µM, respectively.
On to `Nc1nc(N)c2c(CSc3ccccc3)coc2n1`, for which the IC50 (in experiment [3]; against Dihydrofolate reductase [1]) was over 26 µM in each case.
For `COc1ccc(OC)c(N(C)Cc2coc3nc(N)nc(N)c23)c1`, the IC50 (in experiment [3]; against Dihydrofolate reductase [1]; against Dihydrofolate reductase [2]) was over 27 µM throughout.
Turning to `CN(Cc1coc2nc(N)nc(N)c12)c1ccc(Cl)c(Cl)c1`, the IC50 is over 27 µM in experiment [3], 44.8 µM against Dihydrofolate reductase [1] and over 27 µM on Dihydrofolate reductase [2].
`Nc1nc(N)c2c(CNc3ccc(Oc4ccccc4)cc3)coc2n1` displayed an IC50 in experiment [3] of 32.4 µM.
For `Nc1nc(N)c2c(CNc3ccccc3Oc3ccccc3)coc2n1`, the IC50 (in experiment [3]; against Dihydrofolate reductase [1]; against Dihydrofolate reductase [2]) was over 12 µM in each case.
Take `COc1cccc(NCc2coc3nc(N)nc(N)c23)c1`: the IC50 (in experiment [3]; on Dihydrofolate reductase [1]; at Dihydrofolate reductase [2]) was over 31.3 µM each time.
With `Nc1nc(N)c2c(CNc3ccccc3-c3ccccc3)coc2n1`, on Dihydrofolate reductase [2], the IC50 was 137 µM.
The compound `Nc1nc(N)c2c(CNc3cc(Cl)ccc3Cl)coc2n1` gave an IC50 in experiment [3] of over 47 µM.
Regarding `CN(Cc1coc2nc(N)nc(N)c12)c1cc(Cl)c(Cl)c(Cl)c1`, half-maximal inhibition on Dihydrofolate reductase [1] (IC50) required 284 µM.
As to `Nc1nc(N)c2c(CNc3ccc4ccccc4c3)coc2n1`, the IC50 in experiment [3] was determined as 38 µM; at Dihydrofolate reductase [1] it was 41 µM; against Dihydrofolate reductase [2], 36.5 µM.

Source of the values: ChEMBL document CHEMBL1131327, “Selective Pneumocystis carinii dihydrofolate reductase inhibitors: design, synthesis, and biological evaluation of new 2,4-diamino-5-substituted-furo[2,3-d]pyrimidines” (J Med Chem, 1998).
